Laboratory results taken from article PMC11509018, “Evaluation of the Role of Tanshinone I in an In Vitro System of Charcot-Marie-Tooth Disease Type 2N” (International Journal of Molecular Sciences, 2024).

How the values were obtained:
AlaRS^R329H [1] = biological target: T1, AlaRS^R329H (Homo sapiens, UniProt P49588, R329H); assay: ATP consumption assay (enzyme inhibition); assay type: biochemical; settings: 1 μM AlaRS^R329H at 20 μM compounds; vs DMSO control
T1 construct: made in house; host or cells: E. coli BL21 (DE3), pET-21a
T1 sequence (P49588 1-968 R329H): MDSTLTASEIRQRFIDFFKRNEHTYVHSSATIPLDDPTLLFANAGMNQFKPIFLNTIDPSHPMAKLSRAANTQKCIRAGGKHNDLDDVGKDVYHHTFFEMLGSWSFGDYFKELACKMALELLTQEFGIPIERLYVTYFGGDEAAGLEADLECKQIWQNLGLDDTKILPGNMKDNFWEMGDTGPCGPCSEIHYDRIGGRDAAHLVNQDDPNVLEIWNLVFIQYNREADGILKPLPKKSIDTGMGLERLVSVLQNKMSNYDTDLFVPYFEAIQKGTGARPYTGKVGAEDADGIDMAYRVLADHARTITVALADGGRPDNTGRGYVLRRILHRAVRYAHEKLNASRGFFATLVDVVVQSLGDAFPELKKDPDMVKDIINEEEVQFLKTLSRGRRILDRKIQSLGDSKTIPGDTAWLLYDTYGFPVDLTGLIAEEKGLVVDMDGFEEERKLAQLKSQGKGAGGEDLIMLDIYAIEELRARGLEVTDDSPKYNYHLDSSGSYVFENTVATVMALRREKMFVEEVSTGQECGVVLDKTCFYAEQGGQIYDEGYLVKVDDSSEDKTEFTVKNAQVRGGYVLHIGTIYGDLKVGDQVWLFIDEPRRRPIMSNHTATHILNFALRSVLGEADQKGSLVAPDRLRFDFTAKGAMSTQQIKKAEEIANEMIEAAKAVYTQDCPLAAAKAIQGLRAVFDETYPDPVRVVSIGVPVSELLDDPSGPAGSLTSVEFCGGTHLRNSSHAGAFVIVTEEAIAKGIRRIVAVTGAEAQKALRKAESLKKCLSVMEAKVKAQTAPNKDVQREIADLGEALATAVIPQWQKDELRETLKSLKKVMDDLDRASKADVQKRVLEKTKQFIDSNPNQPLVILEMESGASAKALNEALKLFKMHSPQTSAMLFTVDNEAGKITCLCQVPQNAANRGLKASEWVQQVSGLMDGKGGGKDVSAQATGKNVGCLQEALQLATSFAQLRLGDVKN
Experimental: We further investigated the effects of the four small molecules on the enzymatic activity of the AlaRS^R329H protein using an ATP consumption assay. All four compounds affected enzymatic activity to varying degrees. […] The ATP consumption assay was used to evaluate the enzymatic inhibitory activity of the compounds. A 30 μL reaction mixture, containing 1 μM AlaRS mutants, 25 μM ATP, 50 μM L-alanine, 30 mM HEPES (pH 7.5), 150 mM NaCl, 30 mM KCl, 40 mM MgCl2, 0.1% BSA, and varying concentrations of Tanshinone I, was incubated at room temperature for 15 min. After incubation, 10 μL of the mixture was transferred to a 384-well microplate, and AlaRS mutant activity was measured by adding 10 μL of the ATP Assay Kit (#S0026, Beyotime, Shanghai, China). Luminescence was recorded using a Synergy HTX multimode microplate reader (BioTek Inc., Winooski, VT, USA). The inhibitory rate was calculated from three independent assays to ensure the accurate assessment of Tanshinone I’s inhibitory activity. The experiment was repeated three times.

AlaRS^R329H [2] = biological target: T1, AlaRS^R329H; assay: Thermal shift assay (TSA); assay type: binding; settings: positive hit = shift of more than 2.5 °C
Description: In this assay, with increasing temperatures, the protein undergoes thermal unfolding, exposing its hydrophobic core. Subsequently, a fluorescent dye binds to these hydrophobic regions, becoming unquenched. Fluorescence is closely monitored, and the midpoint of the protein unfolding transition is designated as the Tm. Ligand binding frequently influences protein thermal stability during denaturation. Thus, the ligand binding affinity of any potential inhibitor can be gauged by evaluating the shift in the Tm. In this experiment, we screened a library of 2000 small molecules (Table S1) and classified as positive hits those that caused a shift in the Tm of the mutant protein of more than 2.5 °C. From the TSA, we identified four small molecules that met this criterion (Figure 2A, Table 1). Specifically, Atazanavir sulfate caused a shift of 4.0 °C, Tanshinone I a shift of 3.1 °C, Hederacolchiside A1 a shift of 4.3 °C, and Hexylresorcinol a shift of 5.5 °C (Figure 2B). To assess the impact of small molecules on the thermal stability of mutant proteins, thermal shift assays were performed using a […] (Applied Biosystems, Waltham, MA, USA) with the Protein Thermal Shift™ Kit dye (Thermo Fisher Scientific, Waltham, MA, USA). Each well of a 96-well Optical Reaction Plate (Applied Biosystems) contained 14 μL of thermal shift buffer, 2 μL of diluted thermal shift dye (8×), 2 μL of a 1 mM small molecule solution, and 2 μL of 1 mg/mL protein. Plates were incubated at 4 °C for 1 h before being heated from 25 °C to 95 °C at 1 °C/min. The fluorescence signal of SYPRO orange (excitation/emission: 490/530 nm) was recorded at 30 s intervals to monitor protein denaturation. The melting temperature (Tm), defined as the midpoint of the unfolding transition, was determined from the fluorescence–temperature curve. ΔTm was calculated as the difference in Tm between AlaRS^R329H treated with compounds and the control. Experiments were conducted in triplicate for accuracy. The experiment was repeated three times.

Relative Activity (relative enzyme activity of the first step) (AlaRS^R329H [1]): 26.2% | ΔTm (shift between the Tm values of AlaRS^R329H with and without compounds) (AlaRS^R329H [2]): 3.1 °C
SMILES: Cc1coc2c1C(=O)C(=O)c1c-2ccc2c(C)cccc12 [Tanshinone I]
